Data reported in patent publication US8785655B2, “Ionic liquid solvents” (Dublin City University, priority 2009, dated 2014).

Tests used:
Absidia corymbifera 272 = experiment: In vitro antifungal activity, MIC by microdilution (NCCLS M27-A); settings: AC
Candida tropicalis 156 = experiment: as above; settings: CT
Method: (§1) In vitro antifungal activities of the compounds were evaluated on the collection of fungal strains deposited at the Department of Biological and Medical Sciences, Faculty of Pharmacy, Charles University, Czech Republic. All the isolates were maintained on Sabouraud dextrose agar prior to being tested.
(§2) Minimum inhibitory concentrations (MICs) were determined by the microdilution format of the NCCLS M27-A guidelines. […] RPMI 1640 (Sevapharma, Prague) medium supplemented with L-glutamine and buffered with 0.165 M morpholinepropanesulfonic acid to pH 7.0 was used as the test medium. The wells of the microdilution tray contained 100 μl of the RPMI 1640 medium with 2-fold serial dilutions of the compounds (1000 to 0.24 μmol/l for the new compounds) and 100 μl of inoculum suspension. Fungal inoculum in RPMI 1640 was prepared to give a final concentration of 5×103±0.2 cfu·ml-1. The trays were incubated at 35° C. and MICs were read visually for filamentous fungi and photometrically for yeasts as an optical density (OD) at 540 nm after 24 h and 48 h. The MICs were defined as 80% inhibition of the growth of control. MICs were determined twice and in duplicate. The deviations from the usually obtained were no higher than the nearest concentration value up and down the dilution scale.

[1] = test system: Staphylococcus aureus CCM 4516/08; experiment: Screen against bacteria, MIC/IC80; type: cell-based; settings: SA
Candida krusei E28 = experiment: In vitro antifungal activity, MIC by microdilution (NCCLS M27-A)
Method: All the isolates were maintained on Sabouraud dextrose agar prior to being tested.
as §2

[2] = test system: Pseudomonas aeruginosa CCM 1961; experiment: Screen against bacteria, MIC/IC80; type: cell-based; settings: PA
[3] = test system: Staphylococcus epidermidis H 6966/08; experiment: Screen against bacteria, MIC/IC80; type: cell-based; settings: SE
[4] = test system: Staphylococcus aureus H 5996/08 Methiciline-resistant; experiment: Screen against bacteria, MIC/IC80; type: cell-based; settings: MRSA
[5] = test system: Candida parapsilosis ATCC 22019; experiment: In vitro antifungal activity, MIC by microdilution (NCCLS M27-A); settings: CP
Candida glabrata 20/l = experiment: as above; settings: CG
Method: as §1, §2

[6] = test system: Klebsiella pneumoniae D 11750/08; experiment: Screen against bacteria, MIC/IC80; type: cell-based; settings: KP
[7] = test system: Enterococcus sp. J 14365/08; experiment: Screen against bacteria, MIC/IC80; type: cell-based; settings: EF
Escherichia coli CCM4517 = experiment: Screen against bacteria, MIC/IC80; type: cell-based; settings: EC
[8] = test system: Candida albicans ATCC 44859; experiment: In vitro antifungal activity, MIC by microdilution (NCCLS M27-A)
Method: as §1, §2

fungi and bacteria = type: cell-based
Method: All the 12 bromide salts and 12 octylsulfate CILs in the table below were screened against fungi and bacteria.
CILs with bromide as anion have been screened against the following Fungi and bacteria:
. […] MICs were determined twice and in duplicate.

Candida krusei ATCC 6258 = experiment: In vitro antifungal activity, MIC by microdilution (NCCLS M27-A)
Method: as §1, §2

[9] = test system: Candida albicans ATCC 90028; experiment: as above
Method: as §1, §2

[10] = test system: Trichophyton mentagrophytes 445; experiment: as above; settings: TM
[11] = test system: Candida lusitaniae 2446/l; experiment: as above; settings: CL
[12] = test system: Klebsiella pneumoniae J 14368/08 ESBL-positive; experiment: Screen against bacteria, MIC/IC80; type: cell-based; settings: KP-E
[13] = test system: Aspergillus fumigatus 231; experiment: In vitro antifungal activity, MIC by microdilution (NCCLS M27-A); settings: AF
Method: as §1, §2

## CCCCCCCCOS(=O)(=O)[O-].CCCCCOC(=O)[C@@H](OC(=O)Cn1cc[n+](C)c1)c1ccccc1 [KG302, S-3-methyl-1-[1-(pentoxycarbonyl)-1-phenylmethoxycarbonylmethyl]imidazolium octyl sulphate]
Absidia corymbifera 272; 24 h
  MIC/IC80: 1000 µM
Absidia corymbifera 272; 48 h
  MIC/IC80: >1000 µM
Candida tropicalis 156; 24 h
  MIC/IC80: >1000 µM
Candida tropicalis 156; 48 h
  MIC/IC80: >1000 µM
[1]; 24 h
  MIC/IC80: >1000 µM
[1]; 48 h
  MIC/IC80: >1000 µM
Candida krusei E28; CK2, 24 h
  MIC/IC80: >1000 µM
Candida krusei E28; CK2, 48 h
  MIC/IC80: >1000 µM
[2]; 24 h
  MIC/IC80: >1000 µM
[2]; 48 h
  MIC/IC80: >1000 µM
[3]; 24 h
  MIC/IC80: 1000 µM
[3]; 48 h
  MIC/IC80: >1000 µM
[4]; 24 h
  MIC/IC80: >1000 µM
[4]; 48 h
  MIC/IC80: >1000 µM
[5]; 24 h
  MIC/IC80: >1000 µM
[5]; 48 h
  MIC/IC80: >1000 µM
Candida glabrata 20/l; 24 h
  MIC/IC80: >1000 µM
Candida glabrata 20/l; 48 h
  MIC/IC80: >1000 µM
[6]; 24 h
  MIC/IC80: >1000 µM
[6]; 48 h
  MIC/IC80: >1000 µM
[7]; 24 h
  MIC/IC80: >1000 µM
[7]; 48 h
  MIC/IC80: >1000 µM
Escherichia coli CCM4517; 24 h
  MIC/IC80: >1000 µM
Escherichia coli CCM4517; 48 h
  MIC/IC80: >1000 µM
[8]; CA1, 24 h
  MIC/IC80: 1000 µM
[8]; CA1, 48 h
  MIC/IC80: 1000 µM
Fungi and bacteria
  toxicity / inhibition of the growth of fungi and bacteria: inhibit the growth of fungi and bacteria
Candida krusei ATCC 6258; CK1, 24 h
  MIC/IC80: >1000 µM
Candida krusei ATCC 6258; CK1, 48 h
  MIC/IC80: >1000 µM
[9]; CA2, 24 h
  MIC/IC80: >1000 µM
[9]; CA2, 48 h
  MIC/IC80: >1000 µM
[10]; 72 h
  MIC/IC80: 250 µM
[10]; 120 h
  MIC/IC80: 500 µM
[11]; 24 h
  MIC/IC80: >1000 µM
[11]; 48 h
  MIC/IC80: >1000 µM
[12]; 24 h
  MIC/IC80: >1000 µM
[12]; 48 h
  MIC/IC80: >1000 µM
[13]; 24 h
  MIC/IC80: 1000 µM
[13]; 48 h
  MIC/IC80: >1000 µM

## R-3-methyl-1-[1-(ethoxyethoxycarbonyl)-1-phenylmethoxycarbonylmethyl]imidazolium octyl sulphate [KG301]
Absidia corymbifera 272; 24 h
  MIC/IC80: >1000 µM
Absidia corymbifera 272; 48 h
  MIC/IC80: >1000 µM
Candida tropicalis 156; 24 h
  MIC/IC80: >1000 µM
Candida tropicalis 156; 48 h
  MIC/IC80: >1000 µM
[1]; 24 h
  MIC/IC80: >1000 µM
[1]; 48 h
  MIC/IC80: >1000 µM
Candida krusei E28; CK2, 24 h
  MIC/IC80: >1000 µM
Candida krusei E28; CK2, 48 h
  MIC/IC80: >1000 µM
[2]; 24 h
  MIC/IC80: >1000 µM
[2]; 48 h
  MIC/IC80: >1000 µM
[3]; 24 h
  MIC/IC80: >1000 µM
[3]; 48 h
  MIC/IC80: >1000 µM
[4]; 24 h
  MIC/IC80: >1000 µM
[4]; 48 h
  MIC/IC80: >1000 µM
[5]; 24 h
  MIC/IC80: >1000 µM
[5]; 48 h
  MIC/IC80: >1000 µM
Candida glabrata 20/l; 24 h
  MIC/IC80: >1000 µM
Candida glabrata 20/l; 48 h
  MIC/IC80: >1000 µM
[6]; 24 h
  MIC/IC80: >1000 µM
[6]; 48 h
  MIC/IC80: >1000 µM
[7]; 24 h
  MIC/IC80: >1000 µM
[7]; 48 h
  MIC/IC80: >1000 µM
Escherichia coli CCM4517; 24 h
  MIC/IC80: >1000 µM
Escherichia coli CCM4517; 48 h
  MIC/IC80: >1000 µM
[8]; CA1, 24 h
  MIC/IC80: >1000 µM
[8]; CA1, 48 h
  MIC/IC80: >1000 µM
Candida krusei ATCC 6258; CK1, 24 h
  MIC/IC80: >1000 µM
Candida krusei ATCC 6258; CK1, 48 h
  MIC/IC80: >1000 µM
[9]; CA2, 24 h
  MIC/IC80: >1000 µM
[9]; CA2, 48 h
  MIC/IC80: >1000 µM
[10]; 72 h
  MIC/IC80: >1000 µM
[10]; 120 h
  MIC/IC80: >1000 µM
[11]; 24 h
  MIC/IC80: >1000 µM
[11]; 48 h
  MIC/IC80: >1000 µM
[12]; 24 h
  MIC/IC80: >1000 µM
[12]; 48 h
  MIC/IC80: >1000 µM
[13]; 24 h
  MIC/IC80: >1000 µM
[13]; 48 h
  MIC/IC80: >1000 µM

## R-3-methyl-1-[1-(methoxycarbonyl)-1-phenylmethoxycarbonylmethyl]imidazolium octyl sulphate [KG87]
Absidia corymbifera 272; 24 h
  MIC/IC80: >1000 µM
Absidia corymbifera 272; 48 h
  MIC/IC80: >1000 µM
Candida tropicalis 156; 24 h
  MIC/IC80: >1000 µM
Candida tropicalis 156; 48 h
  MIC/IC80: >1000 µM
[1]; 24 h
  MIC/IC80: >1000 µM
[1]; 48 h
  MIC/IC80: >1000 µM
Candida krusei E28; CK2, 24 h
  MIC/IC80: 1000 µM
Candida krusei E28; CK2, 48 h
  MIC/IC80: >1000 µM
[2]; 24 h
  MIC/IC80: >1000 µM
[2]; 48 h
  MIC/IC80: >1000 µM
[3]; 24 h
  MIC/IC80: >1000 µM
[3]; 48 h
  MIC/IC80: >1000 µM
[4]; 24 h
  MIC/IC80: >1000 µM
[4]; 48 h
  MIC/IC80: >1000 µM
[5]; 24 h
  MIC/IC80: >1000 µM
[5]; 48 h
  MIC/IC80: >1000 µM
Candida glabrata 20/l; 24 h
  MIC/IC80: >1000 µM
Candida glabrata 20/l; 48 h
  MIC/IC80: >1000 µM
[6]; 24 h
  MIC/IC80: >1000 µM
[6]; 48 h
  MIC/IC80: >1000 µM
[7]; 24 h
  MIC/IC80: >1000 µM
[7]; 48 h
  MIC/IC80: >1000 µM
Escherichia coli CCM4517; 24 h
  MIC/IC80: >1000 µM
Escherichia coli CCM4517; 48 h
  MIC/IC80: >1000 µM
[8]; CA1, 24 h
  MIC/IC80: >1000 µM
[8]; CA1, 48 h
  MIC/IC80: >1000 µM
Candida krusei ATCC 6258; CK1, 24 h
  MIC/IC80: 1000 µM
Candida krusei ATCC 6258; CK1, 48 h
  MIC/IC80: >1000 µM
[9]; CA2, 24 h
  MIC/IC80: >1000 µM
[9]; CA2, 48 h
  MIC/IC80: >1000 µM
[10]; 72 h
  MIC/IC80: 1000 µM
[10]; 120 h
  MIC/IC80: >1000 µM
[11]; 24 h
  MIC/IC80: >1000 µM
[11]; 48 h
  MIC/IC80: >1000 µM
[12]; 24 h
  MIC/IC80: >1000 µM
[12]; 48 h
  MIC/IC80: >1000 µM
[13]; 24 h
  MIC/IC80: >1000 µM
[13]; 48 h
  MIC/IC80: >1000 µM

## R-3-methyl-1-[1-(pentoxycarbonyl)-1-methylmethoxycarbonylmethyl]imidazolium octyl sulphate [KG171]
Absidia corymbifera 272; 24 h
  MIC/IC80: >1000 µM
Absidia corymbifera 272; 48 h
  MIC/IC80: >1000 µM
Candida tropicalis 156; 24 h
  MIC/IC80: >1000 µM
Candida tropicalis 156; 48 h
  MIC/IC80: >1000 µM
[1]; 24 h
  MIC/IC80: >1000 µM
[1]; 48 h
  MIC/IC80: >1000 µM
Candida krusei E28; CK2, 24 h
  MIC/IC80: >1000 µM
Candida krusei E28; CK2, 48 h
  MIC/IC80: >1000 µM
[2]; 24 h
  MIC/IC80: >1000 µM
[2]; 48 h
  MIC/IC80: >1000 µM
[3]; 24 h
  MIC/IC80: >1000 µM
[3]; 48 h
  MIC/IC80: >1000 µM
[4]; 24 h
  MIC/IC80: >1000 µM
[4]; 48 h
  MIC/IC80: >1000 µM
[5]; 24 h
  MIC/IC80: >1000 µM
[5]; 48 h
  MIC/IC80: >1000 µM
Candida glabrata 20/l; 24 h
  MIC/IC80: >1000 µM
Candida glabrata 20/l; 48 h
  MIC/IC80: >1000 µM
[6]; 24 h
  MIC/IC80: >1000 µM
[6]; 48 h
  MIC/IC80: >1000 µM
[7]; 24 h
  MIC/IC80: >1000 µM
[7]; 48 h
  MIC/IC80: >1000 µM
Escherichia coli CCM4517; 24 h
  MIC/IC80: >1000 µM
Escherichia coli CCM4517; 48 h
  MIC/IC80: >1000 µM
[8]; CA1, 24 h
  MIC/IC80: >1000 µM
[8]; CA1, 48 h
  MIC/IC80: >1000 µM
Candida krusei ATCC 6258; CK1, 24 h
  MIC/IC80: >1000 µM
Candida krusei ATCC 6258; CK1, 48 h
  MIC/IC80: >1000 µM
[9]; CA2, 24 h
  MIC/IC80: >1000 µM
[9]; CA2, 48 h
  MIC/IC80: >1000 µM
[10]; 72 h
  MIC/IC80: >1000 µM
[10]; 120 h
  MIC/IC80: >1000 µM
[11]; 24 h
  MIC/IC80: >1000 µM
[11]; 48 h
  MIC/IC80: >1000 µM
[12]; 24 h
  MIC/IC80: >1000 µM
[12]; 48 h
  MIC/IC80: >1000 µM
[13]; 24 h
  MIC/IC80: >1000 µM
[13]; 48 h
  MIC/IC80: >1000 µM
